On data set [1], the source says: Various materials used to manufacture a cell culture device have been tested. One material used for the cell culture device, PEEK, is a strong plastic polymer that is resistant to wear. PEEK is advantageous in drug testing because it is non-absorbent as opposed to, for example, the commonly used poly(dimethylsiloxane) (PDMS), which is known to retain small hydrophobic molecules, such as nicotine. PEEK has been found not to retain nicotine or NNK, another small hydrophobic molecule. Therefore, the cell culture device is suitable for the testing of drug effects on the tissues housed within the cell culture device without risk of the drug concentration (or concentration of its metabolites) being altered by the material.
PEEK has the advantage of not being absorbent towards small molecules. […] This is important since materials used for commercially available plates such as PDMS are known to trap small hydrophobic molecules.

The conditions of data set [2]: PDMS plate, 8 hours incubation at 4° C.

Molecules are shown by their SMILES. Like-named read-outs stand apart in the source and are kept apart here.

Consider `CN(CCCC(=O)c1cccnc1)N=O` [NNK, 4-(methylnitrosamino)-1-(3-pyridyl)-1-butanone], for which the “absorbance of PEEK towards the molecule (trapping by the material)” value in data set [1] is “not trapped by the material”.
As to `CN1CCCC1c1cccnc1` (stereo not shown) [nicotine], the “amount of nicotine remaining in the plate” value in data set [1] (8 h) is on record as “about 100%”; in data set [2], “about 35%”. Also, the “absorbance of PEEK towards the molecule (trapping by the material)” value in data set [1] is listed as “not trapped by the material”.

(Values after US12163111B2 (priority 2017, dated 2024).)
